In US12077503B2, “Substituted cyclic amides and their use as herbicides” (FMC CORPORATION, priority 2015, dated 2024):

Tests used:
Type in all cases: in vivo
[1] = tested on: redroot pigweed (Amaranthus retroflexus); test: Test G Post-Emergence Protocol; conditions: Amaranthus retroflexus, post-emergence, 312 h, read-out: Pigweed, Redroot damage rating; for pest or weed control at 15.625 g/ha: 15.625 g ai/ha, evaluated after 13 days (100=total damage to plant; 0=no damage to plant); for pest or weed control at 62.5 g/ha: 62.5 g ai/ha; for pest or weed control at 62.5 g/ha / pest or weed control at 250 g/ha: evaluated after 13 days, 100=total damage to plant, 0=no damage to plant; for pest or weed control at 250 g/ha: 250 g ai/ha
In short: (§1)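 A glasshouse post-emergence test: 8-day-old plants sprayed at 15.625, 62.5 or 250 g/ha, then grown at 24/16 °C day/night with 14 h light and 65% humidity. Damage rated 13 days later, 0–100.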

[2] = tested on: velvetleaf (Abutilon theophrasti); test: Test G Post-Emergence Protocol; conditions: Abutilon theophrasti, post-emergence, 312 h, read-out: Velvetleaf damage rating; for pest or weed control at 15.625 g/ha: 15.625 g ai/ha, evaluated after 13 days (100=total damage to plant; 0=no damage to plant); for pest or weed control at 62.5 g/ha: 62.5 g ai/ha; for pest or weed control at 62.5 g/ha / pest or weed control at 250 g/ha: evaluated after 13 days, 100=total damage to plant, 0=no damage to plant; for pest or weed control at 250 g/ha: 250 g ai/ha
In short: as §1

corn (Zea mays) [3] = test: Test G Post-Emergence Protocol; conditions: Zea mays, post-emergence, 312 h, read-out: Corn damage rating; for plant injury at 15.625 g/ha: 15.625 g ai/ha, evaluated after 13 days (100=total damage to plant; 0=no damage to plant); for plant injury at 62.5 g/ha: 62.5 g ai/ha; for plant injury at 62.5 g/ha / plant injury at 250 g/ha: evaluated after 13 days, 100=total damage to plant, 0=no damage to plant; for plant injury at 250 g/ha: 250 g ai/ha
In short: as §1

[4] = tested on: barnyardgrass (Echinochloa crus-galli); test: Test G Post-Emergence Protocol; conditions: Echinochloa crus-galli, post-emergence, 312 h, read-out: Barnyardgrass damage rating; for pest or weed control at 15.625 g/ha: 15.625 g ai/ha, evaluated after 13 days (100=total damage to plant; 0=no damage to plant); for pest or weed control at 62.5 g/ha: 62.5 g ai/ha; for pest or weed control at 62.5 g/ha / pest or weed control at 250 g/ha: evaluated after 13 days, 100=total damage to plant, 0=no damage to plant; for pest or weed control at 250 g/ha: 250 g ai/ha
In short: as §1

[5] = tested on: ivy-leaved morning glory (Ipomoea hederacea); test: Test G Post-Emergence Protocol; conditions: Ipomoea, post-emergence, 312 h, read-out: Morningglory, Ivy-leaved damage rating; for pest or weed control at 15.625 g/ha: 15.625 g ai/ha, evaluated after 13 days (100=total damage to plant; 0=no damage to plant); for pest or weed control at 62.5 g/ha: 62.5 g ai/ha; for pest or weed control at 62.5 g/ha / pest or weed control at 250 g/ha: evaluated after 13 days, 100=total damage to plant, 0=no damage to plant; for pest or weed control at 250 g/ha: 250 g ai/ha
In short: as §1

[6] = tested on: giant foxtail (Setaria faberi); test: Test G Post-Emergence Protocol; conditions: Setaria faberi, post-emergence, 312 h, read-out: Foxtail, Giant damage rating; for pest or weed control at 15.625 g/ha: 15.625 g ai/ha, evaluated after 13 days (100=total damage to plant; 0=no damage to plant); for pest or weed control at 62.5 g/ha: 62.5 g ai/ha
In short: as §1

[7] = tested on: redroot pigweed (Amaranthus retroflexus); test: Test G Pre-Emergence Protocol; conditions: Amaranthus retroflexus, pre-emergence, 312 h, evaluated after 13 days; for pest or weed control at 15.625 g/ha: 15.625 g ai/ha; for pest or weed control at 15.625 g/ha / pest or weed control at 250 g/ha: read-out: Pigweed, Redroot damage rating (100=total damage to plant; 0=no damage to plant); for pest or weed control at 62.5 g/ha: 62.5 g ai/ha, 100=total damage to plant, 0=no damage to plant, read-out: Pigweed, Redroot damage rating; for pest or weed control at 250 g/ha: 250 g ai/ha
In short: (§2)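 Test compound in 0.5% Tween 20 acetone/water (50:50) was applied at three rates (15.625, 62.5, 250 g/ha) to soil sown one day earlier. After 13 days plants were scored for injury, where 0 means unaffected and 100 means completely damaged.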

[8] = tested on: velvetleaf (Abutilon theophrasti); test: Test G Pre-Emergence Protocol; conditions: Abutilon theophrasti, pre-emergence, 312 h, evaluated after 13 days; for pest or weed control at 15.625 g/ha: 15.625 g ai/ha; for pest or weed control at 15.625 g/ha / pest or weed control at 250 g/ha: read-out: Velvetleaf damage rating (100=total damage to plant; 0=no damage to plant); for pest or weed control at 62.5 g/ha: 62.5 g ai/ha, 100=total damage to plant, 0=no damage to plant, read-out: Velvetleaf damage rating; for pest or weed control at 250 g/ha: 250 g ai/ha
In short: as §2

corn (Zea mays) [9] = test: Test G Pre-Emergence Protocol; conditions: Zea mays, pre-emergence, 312 h, evaluated after 13 days; for plant injury at 15.625 g/ha: 15.625 g ai/ha; for plant injury at 15.625 g/ha / plant injury at 250 g/ha: read-out: Corn damage rating (100=total damage to plant; 0=no damage to plant); for plant injury at 62.5 g/ha: 62.5 g ai/ha, 100=total damage to plant, 0=no damage to plant, read-out: Corn damage rating; for plant injury at 250 g/ha: 250 g ai/ha
In short: as §2

[10] = tested on: barnyardgrass (Echinochloa crus-galli); test: Test G Pre-Emergence Protocol; conditions: Echinochloa crus-galli, pre-emergence, 312 h, evaluated after 13 days; for pest or weed control at 15.625 g/ha: 15.625 g ai/ha; for pest or weed control at 15.625 g/ha / pest or weed control at 250 g/ha: read-out: Barnyardgrass damage rating (100=total damage to plant; 0=no damage to plant); for pest or weed control at 62.5 g/ha: 62.5 g ai/ha, 100=total damage to plant, 0=no damage to plant, read-out: Barnyardgrass damage rating; for pest or weed control at 250 g/ha: 250 g ai/ha
In short: as §2

[11] = tested on: ivy-leaved morning glory (Ipomoea hederacea); test: Test G Pre-Emergence Protocol; conditions: Ipomoea, pre-emergence, 312 h, evaluated after 13 days; for pest or weed control at 15.625 g/ha: 15.625 g ai/ha; for pest or weed control at 15.625 g/ha / pest or weed control at 250 g/ha: read-out: Morningglory, Ivy-leaved damage rating (100=total damage to plant; 0=no damage to plant); for pest or weed control at 62.5 g/ha: 62.5 g ai/ha, 100=total damage to plant, 0=no damage to plant, read-out: Morningglory, Ivy-leaved damage rating; for pest or weed control at 250 g/ha: 250 g ai/ha
In short: as §2

[12] = tested on: giant foxtail (Setaria faberi); test: Test G Pre-Emergence Protocol; conditions: Setaria faberi, pre-emergence, 312 h, evaluated after 13 days; for pest or weed control at 15.625 g/ha: 15.625 g ai/ha; for pest or weed control at 15.625 g/ha / pest or weed control at 250 g/ha: read-out: Foxtail, Giant damage rating (100=total damage to plant; 0=no damage to plant); for pest or weed control at 62.5 g/ha: 62.5 g ai/ha, 100=total damage to plant, 0=no damage to plant, read-out: Foxtail, Giant damage rating; for pest or weed control at 250 g/ha: 250 g ai/ha
In short: as §2

[13] = evaluated after 13 days, 100=total damage to plant, 0=no damage to plant

Compound | pest or weed control at 15.625 g/ha [1] | pest or weed control at 62.5 g/ha [1] | pest or weed control at 250 g/ha [1] | pest or weed control at 15.625 g/ha [2] | pest or weed control at 62.5 g/ha [2] | pest or weed control at 250 g/ha [2] | plant injury at 15.625 g/ha (corn (Zea mays) [3]) | plant injury at 62.5 g/ha (corn (Zea mays) [3]) | plant injury at 250 g/ha (corn (Zea mays) [3]) | pest or weed control at 15.625 g/ha [4] | pest or weed control at 62.5 g/ha [4] | pest or weed control at 250 g/ha [4] | pest or weed control at 15.625 g/ha [5] | pest or weed control at 62.5 g/ha [5] | pest or weed control at 250 g/ha [5] | pest or weed control at 15.625 g/ha [6] | pest or weed control at 62.5 g/ha [6, 13] | pest or weed control at 15.625 g/ha [7] | pest or weed control at 62.5 g/ha [7] | pest or weed control at 250 g/ha [7] | further results
CN1C[C@H](c2cccc(C(F)(F)F)c2)[C@@H](C(=O)Nc2cnccc2[S+](C)[O-])C1=O (mixture of isomers) [Compound 1752] | 0% | 0% | 0% | 0% | 0% | 0% | 0% | 0% | 0% | 0% | 0% | 0% | 0% | 0% | 0% | 0% | 0% | 0% | 0% | 0% | pest or weed control at 250 g/ha ([6]; 250 g ai/ha, evaluated after 13 days, 100=total damage to plant, 0=no damage to plant): 0%; pest or weed control at 15.625 g/ha [8]: 0%; pest or weed control at 62.5 g/ha [8]: 0%; pest or weed control at 250 g/ha [8]: 0%; plant injury at 15.625 g/ha (corn (Zea mays) [9]): 0%; plant injury at 62.5 g/ha (corn (Zea mays) [9]): 0%; plant injury at 250 g/ha (corn (Zea mays) [9]): 0%; pest or weed control at 15.625 g/ha [10]: 0%; pest or weed control at 62.5 g/ha [10]: 0%; pest or weed control at 250 g/ha [10]: 20%; pest or weed control at 15.625 g/ha [11]: 0%; pest or weed control at 62.5 g/ha [11]: 0%; pest or weed control at 250 g/ha [11]: 0%; pest or weed control at 15.625 g/ha [12]: 0%; pest or weed control at 62.5 g/ha [12]: 0%; pest or weed control at 250 g/ha [12]: 20%
CCOc1cc([C@@H]2CN(C)C(=O)[C@H]2C(=O)Nc2cccc(F)c2C)ccc1C(F)(F)F (racemic) [Compound 1787] | 20% | 20% | 70% | 20% | 20% | 40% | 30% | 50% | 60% | 20% | 60% | 60% | 50% | 70% | 70% | 40% | 70% | 0% | 0% | 20% | pest or weed control at 15.625 g/ha [8]: 0%; pest or weed control at 62.5 g/ha [8]: 10%; pest or weed control at 250 g/ha [8]: 20%; plant injury at 15.625 g/ha (corn (Zea mays) [9]): 20%; plant injury at 62.5 g/ha (corn (Zea mays) [9]): 20%; plant injury at 250 g/ha (corn (Zea mays) [9]): 40%; pest or weed control at 15.625 g/ha [10]: 50%; pest or weed control at 62.5 g/ha [10]: 60%; pest or weed control at 250 g/ha [10]: 90%; pest or weed control at 15.625 g/ha [11]: 0%; pest or weed control at 62.5 g/ha [11]: 0%; pest or weed control at 250 g/ha [11]: 20%; pest or weed control at 15.625 g/ha [12]: 60%; pest or weed control at 62.5 g/ha [12]: 70%; pest or weed control at 250 g/ha [12]: 90%
